The values that follow are results of earlier work, collected in patent publication US9200005B2, “Inhibitor compounds of phosphodiesterase type 10A” (AbbVie Deutschland GmbH & Co. KG, priority 2013, dated 2015).

The test system of data set [1] is rats. The settings on record: amphetamine (WO 03/093499); cited from earlier work.
Data set [2] has as its system rats. The conditions noted are these: PCP (WO 03/093499); cited from earlier work.
Data set [3] concerns rats. The settings on record: cited from earlier work.

`COc1ccc(Cc2nccc3cc(OC)c(OC)cc23)cc1OC` [Papaverine, papaverine]: the “reduction of amphetamine-induced hyperactivity” value in data set [1] is “insignificant”. Moreover, the “hyperactivity in rats induced by PCP” value in data set [2] is on record as “reduced”. In data set [3] (alone (WO 03/093499)), the “catalepsy on its own” value was “did not cause catalepsy”. The “cataleptic effect of the D2 receptor antagonist haloperidol” value in data set [3] (with haloperidol (WO 03/093499)) was “potentiated”.
